Results: US20120035203A1, “BUTACLAMOL FOR THE TREATMENT OF AMYOTROPHIC LATERAL SCLEROSIS” (CAMBRIA PHARMACEUTICALS, INC., priority 2009, published 2012)
Entries after “also recorded” stand apart in the source; their conditions may differ. Peptide text beside a SMILES is read from it. * marks the point of attachment. Cbz = O=C(OCc1ccccc1)*

How the values were obtained:
[1] = test system: PC12 cells that express mutant G93A SOD1 as a YFP fusion protein; test: high throughput cytotoxicity protection assay; details: for Activity in Protection Assay: neuroleptic agent screening; for protection of cell viability from MG132: 100 nM MG132 co-treatment; for EC50: Rattus norvegicus, PC-12, read-out: Protection ED50; for Protection Efficacy Conc.: concentration at which the % viability is given
Method: This idea was tested by examining the sensitivity of PC12 cells to SOD1 aggregates in the presence and absence of proteasome inhibitor MG132. PC12 cells expressing no SOD1, wild type SOD1, G85R SOD1 or G93A SOD1 were grown with or without MG132 (FIG. 1). […] The ability of protein aggregates to induce cell death was examined by treating G93A SOD1-expressing cells with MG132 for 24 h, removing the MG132 by washing and assaying cell viability after another 24 h.
PC12 cells expressing G93A SOD1 were treated with 100 nM MG132 with or without co-treatment with geldanamycin or radicicol.

[2] = test system: [3H] dopamine binding sites; details: cited from earlier work
[3] = test system: [3H] haloperidol binding sites; details: cited from earlier work
[4] = high doses; cited from earlier work
[5] = test system: PC12 cells expressing G85R SOD1; test: mutant SOD1 direct protein aggregation assay; type: cell-based
Method: 4) Compounds could act directly on SOD1 in a manner that prevents mutant SOD1 aggregation. These possibilities were tested using an assay that directly measures protein aggregation. In addition, unlike the high throughput cytotoxicity protection assay, the protein aggregation assay is based on G85R SOD1; this broadens the scope of the screening strategy, and should eliminate compounds with highly specific activity (i.e., G93A SOD1 limited) against protein aggregation.
The identification of a positive control is a crucial step in assay development. Thus, PC12 cells expressing G85R or G93A mutant SOD1 were treated with MG132 to induce protein aggregation, and then co-treated with candidate chemical suppressors of protein aggregation.
To allow this assay to be used in a high-throughput manner, a Cellomics Arrayscan® high content microscopy system was used for screening and quantification. […] Because the most robust high content assays measure events on a per cell basis, it was necessary to select a fluorescent stain that marks whole cells to be used with a compatible stain that marks intracellular structures.

[6] = test system: PC12 cells expressing G93A mutant SOD1; test: MG132-induced SOD1 protein aggregation; type: cell-based
Method: (§1) In PC12 cells that express wild-type SOD1, SOD1 was diffusely localized throughout the cell (Matsumoto et al. J. Cell. Biol 2005, 171(1), 75-85). […] Therefore, these effects are likely to be due to MG132-induced proteasome inhibition, and not due to an off-target effect of MG132.
The identification of a positive control is a crucial step in assay development. Thus, PC12 cells expressing G85R or G93A mutant SOD1 were treated with MG132 to induce protein aggregation, and then co-treated with candidate chemical suppressors of protein aggregation. […] Both compounds induce heat shock transcription factor HSF-1, which in turn induces the heat shock response (FIG. 4). Treatment with radicicol reduced the proportion of cells with aggregates from 75% to 25%, a sufficient difference to allow visual scoring for compounds with efficacy equal to or greater than radicicol.

cellular toxicity = type: cell-based
Source text: Butaclamol is a diasteriomer and the two different isomeric forms can be physically separated.

[7] = test system: PC12 cells expressing G93A SOD1; test: sensitivity of PC12 cells to proteasome inhibitor (cell viability, calcein-AM); type: cell-based
Method: FIG. 1. Proteasome inhibition is selectively toxic to PC12 cells expressing mutant G93A SOD1. Cell survival was determined using the viability stain calcein-AM.

[8] = test system: PC12 cells expressing wild-type SOD1; test: MG132-induced SOD1 protein aggregation; type: cell-based; details: cells treated with MG132
Source text: as §1

[9] = test system: PC12 cells expressing no SOD1, wild type SOD1 and G85R SOD1; test: sensitivity of PC12 cells to proteasome inhibitor (cell viability, calcein-AM); type: cell-based; details: Rattus norvegicus, PC-12
[10] = test system: G93A SOD1 transgenic mice; test: transgenic G93A SOD1 ALS mouse model (open field, survival, neuropathology); type: in vivo; details: for Average life span: untreated 125.1±3.8
Source text: Subjects. […] The development of transgenic mice expressing G93A human SOD1 as a mouse model for the human disease has been regarded as a major breakthrough for development of ALS therapeutics. G93A SOD1 transgenic mice develop progressive hind limb weakness, muscle wasting, and neuropathological sequelae similar to those observed in patients with both sporadic and familial ALS. […] In addition, motor performance deteriorates as the disease progresses. The G93A SOD1 mouse model has played a prominent role in studying disease progression and especially for testing potential therapeutic agents, the latter in part because these animals have a shortened life span of approximately 126 days. In the present study, G93A SOD1 mice and littermate controls are bred from existing colonies at the Bedford VA Medical Hospital. The male G93A SOD1 mice are mated with B6SJL females and the offspring are genotyped by PCR using tail DNA. The number of SOD1 transgenes are assessed by PCR to ensure that transgene copy number remains constant. Mice are housed in micro-isolator cages in complete barrier facilities, and all studies are performed in these facilities. A 12 hour light-dark cycle is maintained and animals are given free access to food and water. Control and transgenic mice of the same age (±2 days) and from the same ‘f generation will be selected from multiple litters to form experimental cohorts (n=20 per group). Standardized criteria for age and parentage are used for placing individual mice into experimental groups/cohorts. Wild type mice are used for initial toxicity, tolerability, and pharmacokinetic studies and ALS mice are used for one-month tolerability studies.
Tolerability, Dosing, and Pharmacokinetics. The tolerable dose range and LD50 for butaclamol was determined in wild type mice by increasing the dose b.i.d. one-fold each injection. The route of administration was via i.p. administration, which was previously reported to produce robust effects in behavioral pharmacology studies, and starting dose range was guided by these prior studies (Lippmann et al., Life Sciences 16, 213, (1975); Humber et al., Mol. Pharmacol. 11, 833, (1975); Voith and Herr, Psychopharmacologia 42, 11, (1975)). One goal was to select a range of doses for the efficacy study starting ten fold below the maximum tolerated dose. Initial pharmacokinetic (pK) studies were conducted by giving animals a single dose, sacrificing them after 30 min, 1 h, 2 h, 4 h, 6 h, and 12 h, and dissecting brains and spinal cords and determining drug concentration in the target tissue. Drug steady-state level was determined in animals that had been dosed for 1 week prior to sacrifice. The range of dosing levels of 0.01, 0.1, and 1 mg/kg once a day were administered throughout the lives of the G93A mice.
Behavioral pharmacology. Behavioral testing for the transgenic G93A SOD1 mice were performed during the light phase of the diurnal cycle since these mice are sufficiently active during that time. Measurements were made for 30 minutes after 10 minutes of acclimation to the box (Opto-Varimex Unit, Columbus Instruments, Columbus, Ohio, USA). Counts of horizontal and vertical motion activity were monitored and quantitative analysis of locomotor activity (resting and ambulatory times), were assessed. The open field box was cleaned before testing each mouse. Each 30 minutes of testing was analyzed as three periods of 10 minute intervals to study the influence of novelty and measured behavior. Mice were coded and investigators were blinded to the genotype and analysis. Testing started on week 4 and performed every other week until the mice could no longer participate.
Efficacy studies. Efficacy was measured using endpoints that clearly indicate neuroprotective function. These include amelioration of degenerative changes in the spinal cord, improved motor function, and prolonged survival. […]

G93A mice = test: climbing assay for extrapyramidal effects; type: in vivo, mouse; details: 0.01, 0.1, 1 mg/kg
Source text: A climbing assay was used to test for extrapyramidal effects.

[11] = test system: healthy volunteers and chronic schizophrenic patients; details: cited from earlier work

Compound: (+) butaclamol
- activity in the protection assay [1]: showed activity
- times more potent than the (−) isomer [2]: about one hundred
- times more potent than the (−) isomer [3]: one thousand
- effect on epinephrine-induced mortality [4]: antagonized epinephrine-induced mortality

Compound: O=c1[nH]c2ccccc2n1C1CCN(CCCC(c2ccc(F)cc2)c2ccc(F)cc2)CC1 [Pimozide]
- Activity in Protection Assay [1]: Inactive

Compound: C[C@@H]1C[C@H]2O[C@@H]2/C=C\C=C\C(=O)Cc2c(Cl)c(O)cc(O)c2C(=O)O1 [Radicicol]
- protection of cell viability from MG132 [1]: protects
- protection of cell viability from MG132 ([1]; listed as radicicol): increased cell viability in a dose-dependent manner
- EC50 [1]: ~530 nM
- Protection Efficacy % Viability ([1]; at the concentration given): 80%
- Protection Efficacy Conc. [1]: 0.7 µM
- Aggregation [5]: Moderate
- proportion of cells with aggregates ([5]; G85R or G93A mutant SOD1 cells, co-treated with MG132, 75% without radicicol): 25%
- suppression of MG132-induced mutant SOD1 aggregation ([5]; G93A SOD1 or G85R SOD1 cells, MG132 co-treatment): decreases mutant SOD1 aggregation
- formation of protein aggregates ([6]; 100 nM MG132 co-treatment): reduced formation of protein aggregates
- IC50 (cellular toxicity): ~30000 nM

Compound: OCCN1CCN(CCCN2c3ccccc3Sc3ccc(Cl)cc32)CC1 [Perphenazine]
- Activity in Protection Assay [1]: Inactive

Compound: CN1CCN(C2=Nc3cc(Cl)ccc3Nc3ccccc32)CC1 [Clozapine]
- Activity in Protection Assay [1]: Inactive

Compound: CN1CCN(C2=Nc3ccccc3Oc3ccc(Cl)cc32)CC1 [Loxapine]
- Activity in Protection Assay [1]: Inactive

Compound: Cc1nc2n(c(=O)c1CCN1CCC(c3noc4cc(F)ccc34)CC1)CCCC2 [Risperidone]
- Activity in Protection Assay [1]: Inactive

Compound: CN(C)CCCN1c2ccccc2Sc2ccc(Cl)cc21 [Chlorpromazine]
- Activity in Protection Assay [1]: Inactive

Compound: CC(C)C[C@H](NC(=O)[C@H](Cc1ccccc1)NC(=O)c1cnccn1)B(O)O [bortezomib]
- sensitivity of PC12 cells to proteasome inhibition ([7]; compared with MG132): Qualitatively similar results

Compound: CN(C)CC/C=C1/c2ccccc2Sc2ccc(Cl)cc21 [Chlorprothixene]
- Activity in Protection Assay [1]: Inactive

Compound: O=C(CCCN1CCC(O)(c2ccc(Cl)cc2)CC1)c1ccc(F)cc1 [Haloperidol]
- Activity in Protection Assay [1]: Inactive

Compound: CC(C)C[C@@H](C=O)NC(=O)[C@H](CC(C)C)NC(=O)[C@H](CC(C)C)NC(=O)OCc1ccccc1 [MG132] (Cbz-Leu-Leu-Leu-aldehyde)
- cells containing protein aggregates ([5]; G85R SOD1 cells treated with MG132): up to 75%
- cells with protein aggregates ([6]; G93A SOD1 cells following treatment with MG132): ~75%
- protein aggregation in wild-type SOD1 cells [8]: no aggregation was observed
- IC50 [9]: ~400 nM
- toxicity at 24 hr ([7]; 100 nM, 24 hr, any of the cell lines): no toxicity
- toxicity after 48 hours ([7]; 100 nM, 48 hours): selectively toxic to the G93A SOD1 cell line
- fold more sensitive than the other PC12 lines ([7]; G93A SOD1 cells vs no SOD1, wild type, G85R): approximately 5 fold
- IC50 ([7]; Rattus norvegicus, PC-12, read-out: IC50 (cell viability)): ~75 nM

Compound: CN1CCN(CCCN2c3ccccc3Sc3ccc(C(F)(F)F)cc32)CC1 [Trifluoperazine]
- Activity in Protection Assay [1]: Inactive

Compound: CC(C)(C)[C@]1(O)CCN2C[C@H]3c4ccccc4CCc4cccc(c43)[C@@H]2C1 [Butaclamol]
- activity in the protection assay [1]: showed activity
- EC50 [1]: ~840 nM
- Protection Efficacy Conc. [1]: 15 µM
- Activity in Protection Assay [1]: Active
- Protection Efficacy % Viability ([1]; rat): 80%
- Aggregation [5]: Inactive
- activity in the aggregation assay [5]: inactive
- IC50 (cellular toxicity): < 25000 nM
- gross lumbar spinal cord (atrophy) ([10]; 0.1 mg/kg, 120 days, WT 3.18±0.24×10^6, untreated 2.25±0.49×10^6, P<0.01): 2.97±0.31×10^6 μm^3
- ventral horn of the lumbar spinal cord (atrophy) ([10]; 0.1 mg/kg, 120 days, WT 7.29±0.41×10^5, untreated 5.28±0.63×10^5, P<0.05): 6.55±0.37×10^5 μm
- ventral horn neuronal count ([10]; 0.1 mg/kg, 120 days, WT 98.1±12.9, untreated 22.4±15.8, P<0.01): 57.3±18.2
- reactive astrogliosis (GFAP expression, lumbar spinal cord) ([10]; butaclamol treatment): ameliorated; also recorded: markedly attenuates reactive astrogliosis
- open field motor activity ([10]; high dose 1 mg/kg, throughout treatment, vs wild type or untreated G93A): significantly reduced motor activity outcome measures
- Average life span ([10]; high dose (1 mg/kg once a day, i.p.)): 123.7 ± 6.2 days
- open field behavior (distance traveled, resting time, ambulatory count, ambulatory time) ([10]; low dose 0.01 mg/kg, 6 week to 12-13 week): no significant effect
- Average life span ([10]; low dose (0.01 mg/kg once a day, i.p.)): 129.3 ± 4.1 days
- open field behavior ([10]; medium dose 0.1 mg/kg, 6 weeks to 12-13 weeks, 0.1 mg/kg): not significantly different from wild type mice
- Average life span ([10]; medium dose (0.1 mg/kg once a day, i.p.)): 141.0 ± 5.3 days
- extended survival as compared with untreated G93A mice ([10]; medium dose (0.1 mg/kg)): 12.7%
- extrapyramidal effects (G93A mice): No significant extrapyramidal effects
- limiting effects in Phase I ([11]; healthy volunteers, single and repeated doses up to 32 mg/day): sedation and extrapyramidal effects
- dose producing extrapyramidal effects in patients ([11]; human, in vivo): ≥ 10 mg/day
- neuroleptic activity in chronic schizophrenic patients ([11]; long-term, 50 mg/day): active neuroleptic agent
